# Calls of active or inactive are those of the source. The calls are words filed in the database; no cut-off is given here.
# Tests used:
# [1] = tested on: HCT-116; test: Antiproliferative activity against human HCT-116 cells; type: functional, cell-based
# [2] = tested on: COLO 205; test: Antiproliferative activity against human COLO 205 cells; type: functional, cell-based
# [3] = tested on: HCT-116; test: Induction of apoptosis in human HCT-116 cells assessed as upregulation of p53 expression measured after 3 days by Western blot analysis; type: functional, cell-based; conditions: time 3.0 day
# [4] = biological target: T1, Dual specificity protein kinase TTK (Homo sapiens) (UniProt P33981); test: Covalent inhibition of human full length N-terminal GST-fused MPS1 (1 to 857 residues) assessed as Kinact/Ki ratio by TR-FRET assay
# T1 sequence (whole entry): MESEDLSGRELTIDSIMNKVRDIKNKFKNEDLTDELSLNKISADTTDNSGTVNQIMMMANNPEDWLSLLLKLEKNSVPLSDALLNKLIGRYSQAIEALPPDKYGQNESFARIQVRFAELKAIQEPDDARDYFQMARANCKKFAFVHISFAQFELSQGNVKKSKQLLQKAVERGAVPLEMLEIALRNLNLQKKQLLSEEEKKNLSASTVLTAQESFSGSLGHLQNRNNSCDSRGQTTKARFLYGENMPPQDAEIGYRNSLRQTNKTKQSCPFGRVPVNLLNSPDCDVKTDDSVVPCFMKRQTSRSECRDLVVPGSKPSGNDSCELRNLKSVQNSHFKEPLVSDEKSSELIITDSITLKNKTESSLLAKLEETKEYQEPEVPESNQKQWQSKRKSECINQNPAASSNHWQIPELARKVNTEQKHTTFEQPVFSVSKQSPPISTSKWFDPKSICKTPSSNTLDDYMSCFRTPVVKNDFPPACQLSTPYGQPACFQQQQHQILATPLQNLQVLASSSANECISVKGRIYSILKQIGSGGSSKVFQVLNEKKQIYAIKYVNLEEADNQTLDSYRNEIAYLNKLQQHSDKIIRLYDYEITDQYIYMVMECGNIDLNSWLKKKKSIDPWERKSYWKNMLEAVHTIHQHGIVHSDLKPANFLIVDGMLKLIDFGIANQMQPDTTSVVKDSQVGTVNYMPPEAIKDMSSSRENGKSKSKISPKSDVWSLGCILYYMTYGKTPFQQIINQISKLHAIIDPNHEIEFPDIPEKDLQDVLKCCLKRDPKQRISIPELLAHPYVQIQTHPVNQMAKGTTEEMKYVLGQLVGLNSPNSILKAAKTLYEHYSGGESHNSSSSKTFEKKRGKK
# [5] = tested on: HCC 2998; test: Antiproliferative activity against human HCC 2998 cells; type: functional, cell-based
# [6] = tested on: Hep 3B2; test: Induction of apoptosis in human Hep3B cells assessed as down regulation of cyclin B1 expression at 200 nM measured upto 5 days by Western blot analysis; type: functional, cell-based; conditions: time day <=5
# [7] = biological target: Ribosomal protein S6 kinase beta-2 (Homo sapiens, UniProt Q9UBS0); test: Inhibition of human recombinant P70S6Kbeta expressed in Sf9 insect cells using [KKRNRTLTK] as substrate in presence of [33P]-ATP by radiometric hotspot kinetic assay
# [8] = tested on: HCT-116; test: Cytotoxicity against human HCT-116 cells assessed as reduction in cell viability incubated for 5 days by XTT assay; type: functional, cell-based; conditions: time 5.0 day
# [9] = tested on: HLE; test: Antiproliferative activity against human HLE cells incubated for 5 days by XTT assay; type: functional, cell-based; conditions: time 5.0 day
# [10] = tested on: SNU-387; test: Induction of apoptosis in human SNU-387 cells assessed as down regulation of cyclin B1 expression at 200 nM measured upto 5 days by Western blot analysis; type: functional, cell-based; conditions: time day <=5
# [11] = tested on: Hep 3B2; test: Induction of apoptosis in human Hep3B cells assessed as increase in cleaved PARP level at 200 nM measured upto 5 days by Western blot analysis; type: functional, cell-based; conditions: time day <=5
# [12] = tested on: HCT-116; test: Induction of apoptosis in human HCT-116 cells assessed as upregulation of phospho-gammaH2A.X expression measured after 3 days by Western blot analysis; type: functional, cell-based; conditions: time 3.0 day
# [13] = tested on: Hep 3B2; test: Induction of apoptosis in human Hep3B cells assessed as increase in cleaved caspase-3 level at 200 nM measured upto 5 days by Western blot analysis; type: functional, cell-based; conditions: time day <=5
# [14] = tested on: PLC-PRF-5; test: Antiproliferative activity against human Alex cells incubated for 5 days by XTT assay; type: functional, cell-based; conditions: time 5.0 day
# [15] = biological target: T2, Dual specificity protein kinase TTK (Homo sapiens, UniProt P33981); test: Inhibition of recombinant human full length N-terminal GST-fused MPS1 (1 to 857 residues) using histone H3 as substrate measured after 1 hr in presence of DTT by TR-FRET assay
# T2 sequence (P33981 whole entry): T1 sequence (whole entry)
# [16] = biological target: MAP kinase-activated protein kinase 2 (Homo sapiens, UniProt P49137); test: Inhibition of human recombinant MAPKAPK2 expressed in Sf9 insect cells using [KKLNRTLSVA] as substrate in presence of [33P]-ATP by radiometric hotspot kinetic assay
# [17] = tested on: HCT-116; test: Induction of apoptosis in human HCT-116 cells assessed as increase in cleaved PARP level measured for 3 days by Western blot analysis; type: functional, cell-based; conditions: time 3.0 day
# [18] = biological target: T2, Dual specificity protein kinase TTK; test: Covalent inhibition of human full length N-terminal GST-fused MPS1 (1 to 857 residues) assessed as inhibition constant by TR-FRET assay
# [19] = tested on: Hep 3B2; test: Induction of apoptosis in human Hep3B cells assessed as increase in phospho-gammaH2A.X expression level at 200 nM measured upto 5 days by Western blot analysis; type: functional, cell-based; conditions: time day <=5
# [20] = tested on: SNU-387; test: Antiproliferative activity against human SNU-387 cells incubated for 5 days by XTT assay; type: functional, cell-based; conditions: time 5.0 day
# [21] = tested on: SK-HEP1; test: Antiproliferative activity against human SK-HEP1 cells incubated for 5 days by XTT assay; type: functional, cell-based; conditions: time 5.0 day
# [22] = biological target: T2, Dual specificity protein kinase TTK; test: Displacement of tracer K9 from NanoLuc-fused MPS1 (unknown origin) expressed in HEK293T cells measured after 2 hrs by NanoBRET assay; type: cell-based
# [23] = tested on: Hep 3B2; test: Induction of cell senescence in human Hep3B cells at 200 uM measured up to 5 days by SA-beta-gal-staining based assay; type: functional; conditions: time day <=5
# [24] = tested on: SW-620; test: Antiproliferative activity against human SW-620 cells; type: functional, cell-based
# [25] = biological target: T2, Dual specificity protein kinase TTK; test: Inhibition of recombinant human full length N-terminal GST-fused MPS1 (1 to 857 residues) using histone H3 as substrate by TR-FRET assay
# [26] = tested on: Hep 3B2; test: Synergistic antiproliferative activity against human Hep3B cells at 200 nM measured after 5 days in presence of navitoclax by crystal violet staining based assay; type: functional, cell-based; conditions: time 5.0 day
# [27] = tested on: Huh-7; test: Induction of apoptosis in human Huh-7 cells assessed as down regulation of cyclin B1 expression at 200 nM measured upto 5 days by Western blot analysis; type: functional, cell-based; conditions: time day <=5
# [28] = tested on: HCT-116; test: Cell cycle arrest in human HCT-116 cells assessed as accumulation in G2/M phase incubated for 3 days; type: functional, cell-based; conditions: time 3.0 day
# Sequence of MAP kinase-activated protein kinase 2 (P49137 whole entry): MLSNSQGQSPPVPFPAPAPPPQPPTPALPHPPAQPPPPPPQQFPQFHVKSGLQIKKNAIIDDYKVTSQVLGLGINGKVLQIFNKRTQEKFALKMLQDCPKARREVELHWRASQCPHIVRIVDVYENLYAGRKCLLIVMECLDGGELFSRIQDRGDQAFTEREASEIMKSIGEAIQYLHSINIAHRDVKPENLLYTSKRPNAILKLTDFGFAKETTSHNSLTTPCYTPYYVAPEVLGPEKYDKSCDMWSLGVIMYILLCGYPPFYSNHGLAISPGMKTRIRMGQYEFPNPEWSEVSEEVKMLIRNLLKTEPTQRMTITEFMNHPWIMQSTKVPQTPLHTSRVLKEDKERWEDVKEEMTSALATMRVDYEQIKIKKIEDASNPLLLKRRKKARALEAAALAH
# Sequence of Ribosomal protein S6 kinase beta-2 (Q9UBS0 whole entry): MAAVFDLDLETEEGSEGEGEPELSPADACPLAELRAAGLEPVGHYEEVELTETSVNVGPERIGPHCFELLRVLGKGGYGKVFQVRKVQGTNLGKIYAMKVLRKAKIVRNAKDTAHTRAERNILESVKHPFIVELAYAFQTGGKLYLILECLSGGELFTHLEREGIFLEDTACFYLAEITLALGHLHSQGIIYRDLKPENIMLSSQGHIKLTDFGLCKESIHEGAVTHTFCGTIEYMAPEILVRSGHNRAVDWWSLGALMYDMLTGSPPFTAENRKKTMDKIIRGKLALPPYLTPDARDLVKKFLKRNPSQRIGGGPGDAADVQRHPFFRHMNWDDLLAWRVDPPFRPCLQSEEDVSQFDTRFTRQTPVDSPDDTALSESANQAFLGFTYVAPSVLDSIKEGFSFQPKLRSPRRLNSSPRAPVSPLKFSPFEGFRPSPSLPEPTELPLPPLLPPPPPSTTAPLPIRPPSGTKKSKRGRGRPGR
compound,measurement,setting,value
C=CC(=O)Nc1cc(N2CCN(C)CC2)ccc1Nc1ncc2c(n1)-n1ccc(C(=O)Nc3c(CC)cccc3CC)c1CC2,Activity,[1],Active
same,Activity,[2],Active
same,Activity,[3],Active
same,Ratio,[4],1.71 10^4/M/s
same,Activity,[5],Active
same,Activity,[6],Active
same,IC50,[7],1650 nM
same,Activity,[8],Active
same,Activity,[9],Active
same,Activity,[10],Active
same,Activity,[11],Active
same,Activity,[12],Active
same,Activity,[13],Active
same,Activity,[14],Active
same,IC50,[15],28.1 nM
same,IC50,[16],> 5000 nM
same,Activity,[17],Active
same,Ki,[18],14.2 nM
same,Activity,[19],Active
same,Activity,[20],Active
same,Activity,[21],Active
same,IC50,[22],22.4 nM
same,Activity,[23],Active
same,Activity,[24],Active
same,IC50,[25],13 nM
same,Ki,[25],0.83 nM
same,Activity,[26],Active
same,Activity,[27],Active
same,Activity,[28],Active
